Measurements from patent US20160083400A1, “TRICYCLIC GUANIDINE DERIVATIVE” (Sunovion Pharmaceuticals Inc., priority 2014, published 2016).
pIC50: −log10 of the molar value.

Key:
Type in all cases: biochemical
[1] = target: PDE1B (Homo sapiens, UniProt Q01064); test: In vitro HTRF PDE1 inhibition assay (PDE1B); conditions: 100 nM cyclic GMP, calmodulin, 45 minutes at 37° C.
[2] = target: PDE1A (PDE 1A3) (Homo sapiens, UniProt P54750); test: In vitro HTRF PDE1 inhibition assay (PDE1A); conditions: PDE1A (1A3); 100 nM cyclic GMP, calmodulin, 45 minutes at 37° C.
Text: (§1) An exemplary procedure for the in vitro Homogenous Time Resolved Fluorescence (HTRF) assay, which can be used to determine the inhibitory action of compounds of the invention toward PDE1 or its isoforms, follows.
(§2) The HTRF PDE1 assay utilized the HTRF technology, which is based on the competition between unlabeled cyclic nucleotide and cyclic nucleotide labeled with XL665 for the binding to cyclic nucleotide-specific antibody labeled with cryptate. The HTRF signal is thus inversely proportional to the concentration of cyclic nucleotide being measured. Since phosphodiesterases break down cyclic nucleotides the HTRF signal was used to determine PDE activity.
(§3) The Cisbio cGMP HTRF assay kit (Cat no: 62GM2PEC) was utilized. Cyclic GMP was diluted to 200 nM in HTRF assay buffer (1 mM CaCl2, 10 mM MgCl2, 10 mM Tris-HCl, 0.1% BSA, pH7.4). 10 μl of compound or DMSO was diluted in 200 nM cyclic GMP solution and added to wells of a 96 well white plate to give 100 nM cyclic GMP in 1% DMSO final concentration. PDE (1A3, 1B or 1C) was diluted to 2× working concentration in HTRF assay buffer with 4 μg/ml Calmodulin, and 10 μl was added to initiate the reaction. The plate was then incubated for 45 minutes at 37° C. d2-Labelled cyclic GMP and anti-cGMP cryptate were diluted in 50 mM phosphate buffer, 0.8M KF, 1% Triton X100, 0.2% BSA, pH7.0. Following incubation 10 μl d2-cGMP, then 10 μl anti cGMP cryptate were added to each well and the plate was incubated for 45 minutes at rt. The plate was then read on Perkin Elmer Victor at 2 different FRET readings ex/emm 340 nm/665 nm and 340 nm/615 nm.
(§4) Compounds having an IC50 of <1 μM, are denoted as +++. Compounds having an IC50 of 1-10 μM, are denoted as ++. Compounds having an IC50 of 10-100 μM, are denoted as +.

[3] = target: PDE1C (Homo sapiens, UniProt Q14123); test: In vitro HTRF PDE1 inhibition assay (PDE1C)
Text: as §1, §2, §3, §4

Chain of PDE1C (Q14123 whole entry): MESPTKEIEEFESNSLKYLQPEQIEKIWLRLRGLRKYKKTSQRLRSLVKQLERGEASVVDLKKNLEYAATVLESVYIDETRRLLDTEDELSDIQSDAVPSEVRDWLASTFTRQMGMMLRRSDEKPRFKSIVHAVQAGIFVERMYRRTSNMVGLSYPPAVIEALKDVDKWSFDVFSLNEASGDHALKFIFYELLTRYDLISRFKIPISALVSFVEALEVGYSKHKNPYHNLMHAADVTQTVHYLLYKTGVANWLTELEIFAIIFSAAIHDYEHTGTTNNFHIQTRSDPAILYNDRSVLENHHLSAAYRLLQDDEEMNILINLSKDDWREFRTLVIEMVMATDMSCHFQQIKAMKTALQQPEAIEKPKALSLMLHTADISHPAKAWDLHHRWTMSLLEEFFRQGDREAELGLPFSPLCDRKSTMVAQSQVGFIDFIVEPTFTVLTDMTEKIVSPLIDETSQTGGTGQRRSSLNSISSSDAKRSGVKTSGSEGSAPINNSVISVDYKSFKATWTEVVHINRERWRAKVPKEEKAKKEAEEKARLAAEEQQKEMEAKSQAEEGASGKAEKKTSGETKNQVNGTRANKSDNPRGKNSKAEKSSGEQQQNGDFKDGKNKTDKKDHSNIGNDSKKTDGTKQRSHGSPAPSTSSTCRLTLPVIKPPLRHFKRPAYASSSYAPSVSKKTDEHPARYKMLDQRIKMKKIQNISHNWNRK
Chain of PDE1A (PDE 1A3) (P54750 whole entry, canonical isoform): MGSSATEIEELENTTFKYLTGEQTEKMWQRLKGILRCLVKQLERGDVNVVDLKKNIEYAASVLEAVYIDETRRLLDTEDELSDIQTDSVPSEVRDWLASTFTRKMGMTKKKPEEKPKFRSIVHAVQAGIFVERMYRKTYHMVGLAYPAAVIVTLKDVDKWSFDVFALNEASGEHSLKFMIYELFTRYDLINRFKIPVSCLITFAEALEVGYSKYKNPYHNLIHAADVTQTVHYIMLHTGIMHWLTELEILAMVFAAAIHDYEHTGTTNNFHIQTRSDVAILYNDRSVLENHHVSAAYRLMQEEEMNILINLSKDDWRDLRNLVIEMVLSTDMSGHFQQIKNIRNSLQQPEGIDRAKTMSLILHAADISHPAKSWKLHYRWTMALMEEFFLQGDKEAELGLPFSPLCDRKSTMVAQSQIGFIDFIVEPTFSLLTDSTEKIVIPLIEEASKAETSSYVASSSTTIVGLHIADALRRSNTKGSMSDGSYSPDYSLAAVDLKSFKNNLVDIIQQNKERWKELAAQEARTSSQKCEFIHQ
Chain of PDE1B (Q01064 whole entry): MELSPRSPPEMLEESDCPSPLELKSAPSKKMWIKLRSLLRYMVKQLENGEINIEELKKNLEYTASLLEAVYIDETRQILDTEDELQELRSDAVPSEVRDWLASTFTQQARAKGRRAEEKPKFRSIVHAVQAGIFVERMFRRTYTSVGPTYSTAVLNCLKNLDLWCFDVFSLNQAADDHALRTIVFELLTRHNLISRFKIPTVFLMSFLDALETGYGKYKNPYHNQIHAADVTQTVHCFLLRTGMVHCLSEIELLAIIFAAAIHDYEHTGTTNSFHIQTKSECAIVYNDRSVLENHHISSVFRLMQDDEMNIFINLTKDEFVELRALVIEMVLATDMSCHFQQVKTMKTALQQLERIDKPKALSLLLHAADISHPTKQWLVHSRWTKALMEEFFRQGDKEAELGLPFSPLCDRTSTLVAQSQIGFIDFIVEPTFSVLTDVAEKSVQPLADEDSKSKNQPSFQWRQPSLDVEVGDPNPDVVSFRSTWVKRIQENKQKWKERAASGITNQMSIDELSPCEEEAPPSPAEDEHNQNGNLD

Row | IC50 [1] [µM] | IC50 [2] [µM] | pIC50 [3] | SMILES
1 | < 1 | 1 to 10 | 5.00 to 6.00 | O=c1c2cnn(C3CCCC3)c2nc2n1CCC(c1ccc(Cl)cc1)N2 (stereo not drawn) [Example 4]
2 | < 1 | < 1 | 5.00 to 6.00 | CC(C)c1ncc2c(=O)n3c(nn12)N[C@@H](c1ccc(Cl)cc1)CC3 [Example 18, (2R)-2-(4-Chlorophenyl)-9-isopropyl-1,2,3,4-tetrahydro-6H-imidazo[5,1-f]pyrimido[2,1-c][1,2,4]triazin-6-one]
3 | < 1 | < 1 | 5.00 to 6.00 | CC(C)n1ncc2c(=O)n3c(nc21)N[C@@H](c1ccc(Cl)cc1)CC3 [Example 27]
4 | < 1 | < 1 | 5.00 to 6.00 | CC(C)n1ncc2c(=O)n3c(nc21)NC(c1ccc(C(F)(F)F)cc1)CC3 (stereo not drawn) [Example 29]
5 | < 1 | 10 to 100 | 5.00 to 6.00 | CC(C)c1ncc2c(=O)n3c(nn12)NC(c1ccc(Cl)cc1)CC3 (stereo not drawn) [Example 46]
6 | < 1 | 1 to 10 | 5.00 to 6.00 | CC(C)c1ncc2c(=O)n3c(nn12)NCCC3 [Example 52]
7 | < 1 | < 1 | 5.00 to 6.00 | O=c1c2cnc(C3CCOCC3)n2nc2n1CCC(c1ccc(Cl)cc1)N2 (stereo not drawn) [Example 55]
8 | 10 to 100 |  |  | O=c1c2noc(C3CCCC3)c2nc2n1CC[C@H](c1ccc(Cl)cc1)N2 [Example 153]
9 | 1 to 10 |  |  | N#Cc1ccc(C2CCn3c(nc4c(C5CCCC5)onc4c3=O)N2)cc1 (stereo not drawn) [Example 154]
10 | 1 to 10 |  |  | O=c1c2noc(C3CCOCC3)c2nc2n1CC[C@H](c1ccc(Cl)cc1)N2 [Example 155]
11 | 10 to 100 |  |  | N#Cc1ccc(C2CCn3c(nc4c(C5CCOCC5)onc4c3=O)N2)cc1 (stereo not drawn) [Example 156]
12 | 1 to 10 |  |  | CC(C)c1onc2c(=O)n3c(nc12)NC(c1ccc(C#N)cc1)CC3 (stereo not drawn) [Example 157]
13 | 1 to 10 |  |  | CC(C)c1onc2c(=O)n3c(nc12)NC(c1cccc(Cl)c1)CC3 (stereo not drawn) [Example 158]
14 | 10 to 100 |  |  | O=c1c2noc(C3CCOCC3)c2nc2n1CCC(c1cccc(Cl)c1)N2 (stereo not drawn) [Example 159]
15 | < 1 |  |  | CC(C)Cc1ncc2c(=O)n3c(nn12)N[C@@H](c1ccc(Cl)cc1)CC3 [Example 166]
16 | < 1 |  |  | CCCc1ncc2c(=O)n3c(nn12)N[C@@H](c1ccc(Cl)cc1)CC3 [Example 167]
17 | 1 to 10 |  |  | O=c1c2ccnc(C3CCOCC3)c2nc2n1CCC(c1ccc(Cl)cc1)N2 (stereo not drawn) [Example 172]
18 | < 1 |  |  | CC(C)c1nccc2c(=O)n3c(nc12)NC(c1ccc(Cl)cc1)CC3 (stereo not drawn) [Example 173]
19 | 1 to 10 |  |  | O=c1c2cnc(C3CCOCC3)n2nc2n1CCC1(CCc3ccccc31)N2 (stereo not drawn) [Example 177, 9-(Tetrahydro-2H-pyran-4-yl)-2′,3,3′,4-tetrahydro-1H,6H-spiro[imidazo[5,1-f]pyrimido[2,1-c][1,2,4]triazine-2,1′-inden]-6-one]
20 | 1 to 10 |  |  | O=c1c2cnc(C3CCOCC3)n2nc2n1CCC1(CCCc3ccccc31)N2 (stereo not drawn) [Example 180]
21 | < 1 |  |  | CC(C)c1ncc2c(=O)n3c(nn12)NC(c1ccc(Cl)nc1)C3 (stereo not drawn) [Example 181, 2-(6-Chloro-3-pyridinyl)-8-isopropyl-2,10-dihydro-3H,5H-diimidazo[2,1-c:5′,1′-f][1,2,4]triazin-5-one]
22 | < 1 |  |  | O=C1c2cnc([C@@H]3CCOC3)n2NC2=N[C@@H](c3ccc(Cl)cc3)CN12 [Example 185, (2S)-2-(4-Chlorophenyl)-8-[(3S)-tetrahydro-3-furanyl]-2,10-dihydro-3H,5H-diimidazo[2,1-c:5′,1′-f][1,2,4]triazin-5-one]
23 | < 1 |  |  | O=C1c2cnc([C@H]3CCOC3)n2NC2=N[C@@H](c3ccc(Cl)cc3)CN12 [Example 186, (2S)-2-(4-Chlorophenyl)-8-[(3R)-tetrahydro-3-furanyl]-2,10-dihydro-3H,5H-diimidazo[2,1-c:5′,1′-f][1,2,4]triazin-5-one]
24 | 1 to 10 |  |  | CO[C@H]1CC[C@@H](c2ncc3c(=O)n4c(nn32)N[C@@H](c2ccc(Cl)cc2)CC4)CC1 [Example 236]

Row | IC50 [1] [µM] | IC50 [2] [µM] | pIC50 [3] | SMILES
25 | 1 to 10 |  |  | O=c1c2cnc(CO)n2nc2n1CC[C@H](c1ccc(Cl)cc1)N2 [Example 237]
26 | < 1 |  |  | COC(C)(C)c1ncc2c(=O)n3c(nn12)N[C@@H](c1ccc(Cl)cc1)CC3 [Example 240]
27 | < 1 |  |  | C=C(C)c1ncc2c(=O)n3c(nn12)N[C@@H](c1ccc(Cl)cc1)CC3 [Example 241]
28 | < 1 |  |  | O=c1c2cnc(C3CC=CCC3)n2nc2n1CC[C@H](c1ccc(Cl)cc1)N2 (stereo partly drawn) [Example 243]
29 | < 1 |  |  | COCc1ncc2c(=O)n3c(nn12)N[C@@H](c1ccc(Cl)cc1)CC3 [Example 244]
30 | < 1 |  |  | CC1(c2ncc3c(=O)n4c(nn23)N[C@@H](c2ccc(Cl)cc2)CC4)CCCC1 [Example 245]
31 | 1 to 10 |  |  | O=c1c2cnc(C(F)(F)F)n2nc2n1CC[C@H](c1ccc(Cl)cc1)N2 [Example 246]
32 | < 1 |  |  | O=c1c2cnc(CC3CC3)n2nc2n1CC[C@H](c1ccc(Cl)cc1)N2 [Example 247]
33 | 1 to 10 |  |  | C=Cc1ncc2c(=O)n3c(nn12)N[C@@H](c1ccc(Cl)cc1)CC3 [Example 248]
34 | 1 to 10 |  |  | C[C@H](O)c1ncc2c(=O)n3c(nn12)N[C@@H](c1ccc(Cl)cc1)CC3 [Example 249]
35 | < 1 |  |  | C[C@@H](O)c1ncc2c(=O)n3c(nn12)N[C@@H](c1ccc(Cl)cc1)CC3 [Example 250]
36 | 1 to 10 |  |  | O=c1c2cnc(C(F)(F)F)n2nc2n1C[C@H](c1ccc(Cl)cc1)N2 [Example 251, (2S)-2-(4-Chlorophenyl)-8-(trifluoromethyl)-2,10-dihydro-3H,5H-diimidazo[2,1-c:5′,1′-f][1,2,4]triazin-5-one]
37 | 1 to 10 |  |  | CC(=O)c1ncc2c(=O)n3c(nn12)N[C@@H](c1ccc(Cl)cc1)CC3 [Example 252, (2R)-9-Acetyl-2-(4-chlorophenyl)-1,2,3,4-tetrahydro-6H-imidazo[5,1-f]pyrimido[2,1-c][1,2,4]triazin-6-one]
38 | 1 to 10 |  |  | O=c1c2cnc(C3CCNCC3)n2nc2n1CCC(c1ccc(Cl)cc1)N2 (stereo not drawn) [Example 253, 2-(4-Chlorophenyl)-9-(4-piperidinyl)-1,2,3,4-tetrahydro-6H-imidazo[5,1-f]pyrimido[2,1-c][1,2,4]triazin-6-one]
39 | < 1 |  |  | CC(C)n1ncc2c(=O)n3c(nc21)NCCC3 [Example 254, 1-Isopropyl-6,7,8,10-tetrahydropyrazolo[3,4-d]pyrimido[1,2-a]pyrimidin-4(1H)-one]
40 | < 1 |  |  | COc1ccc([C@@H]2CN3C(=O)c4cnc(C5(C(F)(F)F)CC5)n4NC3=N2)cc1 [Example 255, (2R)-2-(4-Methoxyphenyl)-8-[1-(trifluoromethyl)cyclopropyl]-2,10-dihydro-3H,5H-diimidazo[2,1-c:5′,1′-f][1,2,4]triazin-5-one]
41 | < 1 |  |  | COc1ccc([C@H]2CN3C(=O)c4cnc(C5(C(F)(F)F)CC5)n4NC3=N2)cc1 [Example 256, (2S)-2-(4-Methoxyphenyl)-8-[1-(trifluoromethyl)cyclopropyl]-2,10-dihydro-3H,5H-diimidazo[2,1-c:5′,1′-f][1,2,4]triazin-5-one]
42 | < 1 |  |  | CC(C)c1ncc2c(=O)n3c(nn12)N[C@@H](c1ccc(O)cc1)C3 [Example 261, (2S)-2-(4-Hydroxyphenyl)-8-isopropyl-2,10-dihydro-3H,5H-diimidazo[2,1-c:5′,1′-f][1,2,4]triazin-5-one]
43 | < 1 |  |  | CC(C)c1ncc2c(=O)n3c(nn12)NC(c1ccc(OCF)cc1)C3 (stereo not drawn) [Example 262, 2-[4-(Fluoromethoxy)phenyl]-8-isopropyl-2,10-dihydro-3H,5H-diimidazo[2,1-c:5′,1′-f][1,2,4]triazin-5-one]
44 | < 1 |  |  | Cc1cccc([C@@H]2CCn3c(nn4c(C5CCOCC5)ncc4c3=O)N2)c1 [Example 263, (2S)-2-(3-Methylphenyl)-9-(tetrahydro-2H-pyran-4-yl)-1,2,3,4-tetrahydro-6H-imidazo[5,1-f]pyrimido[2,1-c][1,2,4]triazin-6-one]
45 | < 1 |  |  | Cc1cccc([C@H]2CCn3c(nn4c(C5CCOCC5)ncc4c3=O)N2)c1 [Example 264, (2R)-2-(3-Methylphenyl)-9-(tetrahydro-2H-pyran-4-yl)-1,2,3,4-tetrahydro-6H-imidazo[5,1-f]pyrimido[2,1-c][1,2,4]triazin-6-one]
46 | < 1 |  |  | CC(C)n1ncc2c(=O)n3c(nc21)NC(c1ccc(C#N)cc1)C3 (stereo not drawn) [compound 87]
47 | < 1 |  |  | CC(C)n1ncc2c(=O)n3c(nc21)NC(c1ccc(C#N)cc1)CC3 (stereo not drawn) [compound 88]

Row | SMILES | IC50 [1] [µM] | IC50 [2] [µM] | pIC50 [3]
48 | O=c1c2cnc(C3CCOCC3)n2nc2n1CC(c1ccc(Cl)nc1)N2 (stereo not drawn) [Example 183] | < 1 |  | 
49 | O=c1c2cnc(C3CCOCC3)n2nc2n1CC(c1ccc(F)nc1)N2 (stereo not drawn) [Example 184] | 1 to 10 |  | 
